{"source": "patent US20060241143A1", "about": "“Combination of paroxetine and 2-methoxy-5-(5-trifluoromethyl-tetrazol-1-yl-benzyl)-(2s-phenyl-piperidin-3s-yl)-amine for treatment of depression and/or anxiety” (priority 2003, published 2006)", "system": "mongolian gerbils", "test": "gerbil social interaction model (time spent in active social interactions)", "assay_type": "in vivo", "conditions": "0.03 mg/kg i.p. (as free base), one hour after administration", "procedure": "Paroxetine hydrochloride hemihydrate (0.3 mg/kg p.o of the paroxetine measured as the free base), 2-methoxy-5-(5-trifluoromethyl-tetrazol-1-yl-benzyl)]-(2S-phenyl-piperidin-3S-yl)-amine dihydrochloride (hereinafter compound A) (0.03 mg/kg i.p of the compound A measured as the free base) and a combination of paroxetine (0.3 mg/kg p.o. of the paroxetine measured as the free base) and compound A (0.03 mg/kg i.p. of the compound A measured as the free base) were administered independently in mongolian gerbils to assess the effect on time spent in active social interactions.\nThe results obtained one hour after administration, expressed as a percentage variation of the time spent in active social interactions by each animal in respect to the value obtained by treatment of control animals, are summarised in table 1."}
{"smiles": "COc1ccc(-n2nnnc2C(F)(F)F)cc1CN[C@H]1CCCN[C@H]1c1ccccc1.Cl.Cl", "note": "[Compound A]", "values": [{"measurement": "% Variation of the time spent in active social interactions in respect to control animals", "result": "+19.9%"}]}
